In ChEMBL document CHEMBL5727981, “ASK1 inhibitor and preparation method and use thereof” (2020):

These molecules were tested against T1, Mitogen-activated protein kinase kinase kinase 5 (Homo sapiens, UniProt Q99683) (assay: In Vitro Enzyme Activity: Reagents:Base Reaction Buffer: 20 mM Hepes (pH 7.5), 10 mM MgCl2, 1 mM EGTA, 0.02% Brij35, 0.02 mg/ml BSA, 0.1 mM Na3VO4, 2 mM DTT, 1% DMSOCompound Treatment:The test compound was formulated into a 10 mM stock solution in DMSO, which was diluted into 10 concentrations in 3-fold degression, and placed in a 384-well plate (Cyclic Olefin Copolymer LDV Echo®).Kinase Name: ASK1/MAP3K5 (Invitrogen, Carlsbad, Calif.)Type: Recombinant Human Full Length Protein, GST-taggedFinal concentration of the enzyme: 20 nMSubstrate: Myelin basic protein, MBP (Active Motif, Carlsbad, Calif.)Final concentration of the substrate: 20 μMExperimental Operations:1. The substrate was dissolved in a freshly prepared base reaction buffer.2. A desired coenzyme was added to the above substrate solution.3. The kinase was added to the substrate solution and mixed slowly.4. The solution of the test compound in DMSO was added to the kinase reaction solution and incubated at room temperature for 20 minutes.5. 33P-ATP (specific activity of 10 μCi/μl) was added to the reaction solution to initiate the reaction.6. Incubated at room temperature for 2 hours.7. A small portion of the reactants was placed onto a P-81 ion exchange filter paper.8. The filter paper was washed three times with 0.75% […] to wash off the unbound phosphate, and then the filter paper was dried.9. The radioactivity remaining on the filter paper was determined.10. Kinase activity data was expressed as the ratio of the kinase activity remaining in the test sample to the kinase activity in the vehicle (DMSO).).
T1 sequence (Q99683 whole entry): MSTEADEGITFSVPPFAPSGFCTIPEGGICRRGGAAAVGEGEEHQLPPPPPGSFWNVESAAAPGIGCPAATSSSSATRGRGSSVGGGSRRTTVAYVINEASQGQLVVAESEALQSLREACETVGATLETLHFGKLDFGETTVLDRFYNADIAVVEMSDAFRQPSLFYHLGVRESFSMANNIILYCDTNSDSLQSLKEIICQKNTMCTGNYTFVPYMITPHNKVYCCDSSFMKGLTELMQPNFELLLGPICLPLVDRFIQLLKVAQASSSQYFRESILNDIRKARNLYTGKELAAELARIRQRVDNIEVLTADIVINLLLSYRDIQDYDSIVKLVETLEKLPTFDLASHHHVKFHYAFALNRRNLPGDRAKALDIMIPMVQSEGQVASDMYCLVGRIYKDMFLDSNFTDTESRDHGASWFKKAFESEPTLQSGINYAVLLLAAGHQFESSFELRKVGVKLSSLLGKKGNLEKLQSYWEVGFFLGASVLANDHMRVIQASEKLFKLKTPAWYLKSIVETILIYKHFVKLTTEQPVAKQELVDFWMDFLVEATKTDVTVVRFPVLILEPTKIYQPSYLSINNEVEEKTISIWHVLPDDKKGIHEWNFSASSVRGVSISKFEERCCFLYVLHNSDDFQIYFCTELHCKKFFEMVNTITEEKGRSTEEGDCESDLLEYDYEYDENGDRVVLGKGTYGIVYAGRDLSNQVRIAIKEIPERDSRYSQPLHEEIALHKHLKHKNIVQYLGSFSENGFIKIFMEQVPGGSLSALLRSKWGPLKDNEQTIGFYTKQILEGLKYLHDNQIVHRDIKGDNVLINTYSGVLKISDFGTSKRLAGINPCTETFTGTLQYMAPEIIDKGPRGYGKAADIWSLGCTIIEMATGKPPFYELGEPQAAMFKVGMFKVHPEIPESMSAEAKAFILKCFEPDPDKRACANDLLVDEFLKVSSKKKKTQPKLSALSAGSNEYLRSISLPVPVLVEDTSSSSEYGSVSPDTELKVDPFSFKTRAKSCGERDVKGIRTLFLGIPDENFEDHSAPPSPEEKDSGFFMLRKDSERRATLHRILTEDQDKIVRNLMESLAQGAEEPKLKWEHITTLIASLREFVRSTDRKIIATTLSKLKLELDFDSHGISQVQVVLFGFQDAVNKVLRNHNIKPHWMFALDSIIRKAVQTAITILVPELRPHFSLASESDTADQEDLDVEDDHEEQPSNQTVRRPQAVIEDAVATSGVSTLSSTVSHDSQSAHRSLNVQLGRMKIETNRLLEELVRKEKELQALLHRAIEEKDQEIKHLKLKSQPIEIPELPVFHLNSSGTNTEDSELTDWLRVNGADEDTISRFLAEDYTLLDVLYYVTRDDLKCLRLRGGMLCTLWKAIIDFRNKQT

IC50, < 50 nM:
CC(C)n1cnnc1-c1cccc(N2CCc3cc(Cl)c(-n4cnc(C5CC5)c4)cc3C2=O)n1
CCc1cn(-c2cc3c(=O)n(-c4cccc(-c5nncn5C(C)C)n4)cnc3cc2C)cn1
CC(C)c1cc2ncn(-c3cccc(-c4nncn4C(C)C)n3)c(=O)c2cc1-n1cnc(C2CC2)c1
